Values after ≈ are worked out from the molar mass of the structure shown. Active and inactive are the calls of the source. The calls are words filed in the database; no cut-off is given here.
Key:
[1] = test system: Escherichia coli; assay: Antibacterial activity against Escherichia coli BL21(DE3) assessed as diameter of inhibition zone measured after overnight incubation by agar disc diffusion method; type: functional
[2] = test system: Escherichia coli; assay: Antibacterial activity against Escherichia coli D22 assessed as diameter of inhibition zone measured after overnight incubation by agar disc diffusion method; type: functional
[3] = test system: Escherichia coli; assay: Antibacterial activity against Escherichia coli BL21(DE3) measured after 20 hrs by microdilution method; type: functional
[4] = test system: Escherichia coli; assay: Antibacterial activity against Escherichia coli D22 measured after 20 hrs by microdilution method; type: functional; settings: D22, 20 h
[5] = Inhibition of Escherichia coli LpxC C63A mutant using UDP-3-O-[(R)-3-hydroxymyristoyl]-N-acetylglucosamine as substrate measured after 30 mins by fluorescence based microplate assay
[6] = test system: Klebsiella pneumoniae; assay: Antibacterial activity against Klebsiella pneumoniae assessed as diameter of inhibition zone measured after 24 hrs by agar disc diffusion method; type: functional
[7] = test system: Klebsiella oxytoca; assay: Antibacterial activity against Klebsiella oxytoca assessed as diameter of inhibition zone measured after 24 hrs by agar disc diffusion method; type: functional
[8] = test system: Enterobacter cloacae; assay: Antibacterial activity against Enterobacter cloacae assessed as diameter of inhibition zone measured after 24 hrs by agar disc diffusion method; type: functional
[9] = test system: Klebsiella aerogenes; assay: Antibacterial activity against Enterobacter aerogenes assessed as diameter of inhibition zone measured after 24 hrs by agar disc diffusion method; type: functional
[10] = test system: Proteus mirabilis; assay: Antibacterial activity against Proteus mirabilis assessed as diameter of inhibition zone measured after 24 hrs by agar disc diffusion method; type: functional
[11] = test system: Proteus vulgaris; assay: Antibacterial activity against Proteus vulgaris assessed as diameter of inhibition zone measured after 24 hrs by agar disc diffusion method; type: functional
[12] = test system: Citrobacter freundii; assay: Antibacterial activity against Citrobacter freundii assessed as diameter of inhibition zone measured after 24 hrs by agar disc diffusion method; type: functional
[13] = test system: Pseudomonas aeruginosa; assay: Antibacterial activity against Pseudomonas aeruginosa assessed as diameter of inhibition zone measured after 24 hrs by agar disc diffusion method; type: functional
[14] = target: 72 kDa type IV collagenase (Homo sapiens, UniProt P08253); assay: Inhibition of human MMP2 using (7-methoxycoumarin-4-yl)acetyl-Pro-Leu-Gly-Leu-(3-(2,4-dinitrophenyl)-L-2,3-diamino-propionyl)Ala-Arg-NH2 as substrate preincubated for 30 mins followed by substrate addition and measured by fluorescence assay
Sequence of 72 kDa type IV collagenase (P08253 whole entry): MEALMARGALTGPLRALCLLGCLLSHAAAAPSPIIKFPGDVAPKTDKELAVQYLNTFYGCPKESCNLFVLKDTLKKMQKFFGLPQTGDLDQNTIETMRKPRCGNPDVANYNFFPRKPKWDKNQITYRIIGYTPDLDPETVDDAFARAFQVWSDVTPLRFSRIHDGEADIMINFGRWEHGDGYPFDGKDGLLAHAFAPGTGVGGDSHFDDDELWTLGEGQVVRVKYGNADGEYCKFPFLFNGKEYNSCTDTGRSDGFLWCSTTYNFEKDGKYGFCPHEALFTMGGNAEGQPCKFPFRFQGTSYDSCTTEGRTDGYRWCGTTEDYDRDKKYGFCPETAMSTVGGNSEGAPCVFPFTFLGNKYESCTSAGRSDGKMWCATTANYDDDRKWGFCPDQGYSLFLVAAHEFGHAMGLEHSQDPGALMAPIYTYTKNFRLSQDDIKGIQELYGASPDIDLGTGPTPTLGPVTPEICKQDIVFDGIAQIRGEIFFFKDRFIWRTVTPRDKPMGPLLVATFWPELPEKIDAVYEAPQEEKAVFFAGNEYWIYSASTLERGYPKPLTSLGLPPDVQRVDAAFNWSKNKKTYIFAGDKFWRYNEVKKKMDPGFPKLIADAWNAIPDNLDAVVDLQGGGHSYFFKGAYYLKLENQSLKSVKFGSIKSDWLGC

[15] = target: Neutrophil collagenase (Homo sapiens, UniProt P22894); assay: Inhibition of human MMP8 using (7-methoxycoumarin-4-yl)acetyl-Pro-Leu-Gly-Leu-(3-(2,4-dinitrophenyl)-L-2,3-diamino-propionyl)Ala-Arg-NH2 as substrate preincubated for 30 mins followed by substrate addition and measured by fluorescence assay
Sequence of Neutrophil collagenase (P22894 whole entry): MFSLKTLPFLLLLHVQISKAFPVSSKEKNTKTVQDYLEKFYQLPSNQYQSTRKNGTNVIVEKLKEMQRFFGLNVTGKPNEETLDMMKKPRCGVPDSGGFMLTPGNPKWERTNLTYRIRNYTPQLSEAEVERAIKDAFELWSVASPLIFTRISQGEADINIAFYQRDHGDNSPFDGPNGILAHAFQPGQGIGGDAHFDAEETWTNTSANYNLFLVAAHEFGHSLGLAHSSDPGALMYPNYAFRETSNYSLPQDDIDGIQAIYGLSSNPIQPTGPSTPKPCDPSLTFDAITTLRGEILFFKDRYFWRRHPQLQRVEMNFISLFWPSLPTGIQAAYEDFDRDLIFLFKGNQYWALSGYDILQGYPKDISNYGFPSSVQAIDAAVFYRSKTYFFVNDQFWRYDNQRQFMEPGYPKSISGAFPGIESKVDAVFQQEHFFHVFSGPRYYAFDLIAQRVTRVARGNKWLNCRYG

[16] = target: Matrix metalloproteinase-9 (Homo sapiens, UniProt P14780); assay: Inhibition of human MMP9 using (7-methoxycoumarin-4-yl)acetyl-Pro-Leu-Gly-Leu-(3-(2,4-dinitrophenyl)-L-2,3-diamino-propionyl)Ala-Arg-NH2 as substrate preincubated for 30 mins followed by substrate addition and measured by fluorescence assay
Sequence of Matrix metalloproteinase-9 (P14780 whole entry): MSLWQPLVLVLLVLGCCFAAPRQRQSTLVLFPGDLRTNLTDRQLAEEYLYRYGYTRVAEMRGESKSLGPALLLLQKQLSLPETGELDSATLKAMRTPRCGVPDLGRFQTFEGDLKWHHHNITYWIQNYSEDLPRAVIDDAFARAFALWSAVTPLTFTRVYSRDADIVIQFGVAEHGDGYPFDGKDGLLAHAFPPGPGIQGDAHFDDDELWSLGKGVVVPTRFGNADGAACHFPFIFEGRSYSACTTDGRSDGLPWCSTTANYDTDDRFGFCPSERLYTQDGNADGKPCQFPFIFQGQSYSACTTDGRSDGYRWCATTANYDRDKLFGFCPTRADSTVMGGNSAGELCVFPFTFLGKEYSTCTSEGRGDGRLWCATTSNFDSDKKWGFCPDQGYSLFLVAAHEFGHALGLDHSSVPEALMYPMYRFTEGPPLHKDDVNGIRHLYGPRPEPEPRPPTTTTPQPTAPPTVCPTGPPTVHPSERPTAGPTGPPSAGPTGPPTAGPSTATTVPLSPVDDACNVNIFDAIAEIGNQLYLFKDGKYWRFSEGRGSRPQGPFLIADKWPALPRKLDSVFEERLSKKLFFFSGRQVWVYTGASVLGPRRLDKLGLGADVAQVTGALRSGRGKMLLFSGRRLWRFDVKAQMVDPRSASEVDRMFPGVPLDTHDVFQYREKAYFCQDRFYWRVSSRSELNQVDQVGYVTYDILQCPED

[17] = target: Collagenase 3 (Homo sapiens, UniProt P45452); assay: Inhibition of human MMP13 using (7-methoxycoumarin-4-yl)acetyl-Pro-Leu-Gly-Leu-(3-(2,4-dinitrophenyl)-L-2,3-diamino-propionyl)Ala-Arg-NH2 as substrate preincubated for 30 mins followed by substrate addition and measured by fluorescence assay
[18] = test system: Escherichia coli; assay: Inhibition of Escherichia coli LpxC C63A mutant at 200 uM using UDP-3-O-[(R)-3-hydroxymyristoyl]-N-acetylglucosamine as substrate measured after 30 mins by fluorescence based microplate assay

SMILES	MIC [3] [µM]	MIC [4] [µM]	IC50 [5] [µM]	IC50 [14] [µM]	IC50 [15] [µM]	IC50 [16] [µM]	IC50 [17] [nM]	inhibition [18]	diameter of the inhibition zone (DIZ) [1] [mm]	diameter of the inhibition zone (DIZ) [2] [mm]	Ki [5] [µM]	diameter of the inhibition zone (DIZ) [6] [mm]	diameter of the inhibition zone (DIZ) [7] [mm]	diameter of the inhibition zone (DIZ) [8] [mm]	diameter of the inhibition zone (DIZ) [9] [mm]	diameter of the inhibition zone (DIZ) [10] [mm]	diameter of the inhibition zone (DIZ) [11] [mm]	diameter of the inhibition zone (DIZ) [12] [mm]	diameter of the inhibition zone (DIZ) [13] [mm]
O=C(NO)[C@@H]1CCCN1Cc1ccc(C#Cc2ccc(CN3CCOCC3)cc2)cc1	128 (≈ 53.7 µg/mL)	4 (≈ 1.68 µg/mL)	10.5	3	5	> 10	939		15	25	1.4	20	13	20	18	18	12	16	<6
O=C(NO)[C@@H]1C[C@@H](O)CN1Cc1ccc(C#Cc2ccc(CN3CCOCC3)cc2)cc1	> 256	8 (≈ 3.48 µg/mL)	62.1	> 10	> 10	> 10	> 10000		12.3	21	8.6	7	<6	<6	<6	<6	<6	<6	<6
O=C(NO)[C@H]1[C@H](O)[C@H](O)CN1C(=O)c1ccc(C#Cc2ccc(CN3CCSCC3)cc2)cc1	> 256	128 (≈ 61.6 µg/mL)	> 200	> 10		> 10	5000	inactive	<6	8.3	> 27.6	<6	7	<6	<6	<6	<6	<6	<6
CCCCCc1ccc(C#Cc2ccc(C(=O)N3C[C@@H](O)C[C@H]3C(=O)NO)cc2)cc1	> 256	> 128	> 200	0.003	0.015	0.12	0.7		<6	8	> 27.6	<6	7	<6	<6	7	8	7	<6
CN(C)c1ccc(C#Cc2ccc(C(=O)N3C[C@@H](O)C[C@H]3C(=O)NO)cc2)cc1	256 (≈ 101 µg/mL)	32 (≈ 12.6 µg/mL)	16.7						<6	13	2.3	9	8	8	9	8	<6	9	<6
CCCCCc1ccc(C#Cc2ccc(C(=O)N3C[C@H](O)C[C@H]3C(=O)NO)cc2)cc1	> 256	16 (≈ 6.73 µg/mL)	5.9	0.151	0.282	0.845	11		<6	8	0.81	<6	7	8	<6	<6	9	9	<6
O=C(NO)[C@@H]1C[C@H](O)CN1C(=O)c1ccc(C#Cc2ccc(OCCCCCF)cc2)cc1	> 256	> 256		0.005	0.021	0.108	0.07		<6	<6									

Now from value to compound, other results behind:

MIC [3] [µM]	MIC [4] [µM]	IC50 [5] [µM]	IC50 [14] [µM]	IC50 [15] [µM]	IC50 [16] [µM]	IC50 [17] [nM]	inhibition [18]	SMILES	diameter of the inhibition zone (DIZ) [1] [mm]	diameter of the inhibition zone (DIZ) [2] [mm]	Ki [5] [µM]	diameter of the inhibition zone (DIZ) [6] [mm]	diameter of the inhibition zone (DIZ) [7] [mm]	diameter of the inhibition zone (DIZ) [8] [mm]	diameter of the inhibition zone (DIZ) [9] [mm]	diameter of the inhibition zone (DIZ) [10] [mm]	diameter of the inhibition zone (DIZ) [11] [mm]	diameter of the inhibition zone (DIZ) [12] [mm]	diameter of the inhibition zone (DIZ) [13] [mm]
> 256	16 (≈ 7.19 µg/mL)	29.5	0.055	0.198	1	57		O=C(NO)[C@@H]1C[C@H](O)CN1C(=O)c1ccc(C#Cc2ccc(CN3CCOCC3)cc2)cc1	11.3	19.5	4.1	10	8	8	15	11	9	12	<6
> 256	8 (≈ 3.47 µg/mL)	63.4	0.503	0.05	0.731	636		O=C(NO)[C@H]1CCCN1C(=O)c1ccc(C#Cc2ccc(CN3CCOCC3)cc2)cc1	11.3	24.7	8.7	11	8	9	9	9	<6	12	<6
> 256	16 (≈ 7.19 µg/mL)	47.9	1	2	9	1000		O=C(NO)[C@@H]1C[C@@H](O)CN1C(=O)c1ccc(C#Cc2ccc(CN3CCOCC3)cc2)cc1	7.5	20.7	6.6	9	<6	<6	16	9	<6	10	<6
> 256	256 (≈ 129 µg/mL)	> 200	3		> 10	> 10000		CC1(C)O[C@@H]2[C@@H](CN(C(=O)c3ccc(C#Cc4ccc(CN5CCOCC5)cc4)cc3)[C@H]2C(=O)NO)O1	9	10	> 27.6	8	8	<6	8	8	<6	11	<6
64 (≈ 27.7 µg/mL)	16 (≈ 6.94 µg/mL)	45.6	0.57	2	4	280		O=C(NO)[C@@H]1CCCN1C(=O)c1ccc(C#Cc2ccc(CN3CCOCC3)cc2)cc1	13.2	20	6.3	15	9	13	15	12	9	12	<6

Reference: ChEMBL document CHEMBL4392848, “Proline-based hydroxamates targeting the zinc-dependent deacetylase LpxC: Synthesis, antibacterial properties, and docking studies” (Bioorg Med Chem, 2019)
